The record followed here is patent US8193160B2 (priority 2006, dated 2012).

Experiment [1] has as its system Magnaporthe vegetative mycelia, abc3Δ mutant. The class given is cell-based.
A further experiment has as its system abc3Δ mutant. The class given is cell-based, Magnaporthe grisea.

In the case of Gramicidin D, the “Minimum Inhibitory Concentration (MIC), abc3Δ” value in experiment [1] worked out at 180 µg/mL.
The same measure, in the same setting: the value for `CCCCNC(=O)n1c(NC(=O)OC)nc2ccccc21` [Benomyl] was 2 µg/mL; that for `CC(C)[C@@H]1NC(=O)[C@H](C)OC(=O)[C@@H](C(C)C)NC(=O)[C@@H](C(C)C)OC(=O)[C@H](C(C)C)NC(=O)[C@H](C)OC(=O)[C@@H](C(C)C)NC(=O)[C@@H](C(C)C)OC(=O)[C@H](C(C)C)NC(=O)[C@H](C)OC(=O)[C@@H](C(C)C)NC(=O)[C@@H](C(C)C)OC1=O` [Valinomycin] was 3 µg/mL.
`OC(Cn1cncn1)(Cn1cncn1)c1ccc(F)cc1F` [Fluconazole]: the “Minimum Inhibitory Concentration (MIC), abc3Δ” value in experiment [1] worked out at 2500 µg/mL.
Turning to `CCC(=C/[C@H](C)C/C=C/C(C)=C/[C@@H](C)C(=O)[C@@H](C)[C@H](O)[C@@H](C)C/C(C)=C/C(=O)O)/C=C/[C@@H]1OC(=O)C=C[C@@H]1C` [Leptomycin B], the “Minimum Inhibitory Concentration (MIC), abc3Δ” value in experiment [1] turned out to be 0.0075 µg/mL.
Regarding `OO` [hydrogen peroxide], the “growth under oxidative stress” value in the experiment on abc3Δ mutant was “lethal”.
On to Actinomycin D, for which, in experiment [1], the “Minimum Inhibitory Concentration (MIC), abc3Δ” value turned out to be 3.5 µg/mL.
Consider `C[C@H]1CCC/C=C/[C@@H]2C[C@H](O)C[C@H]2[C@H](O)/C=C/C(=O)O1` [Brefeldin A], for which the “Minimum Inhibitory Concentration (MIC), abc3Δ” value in experiment [1] is 40 µg/mL.
